PMC10279719 (Nature Communications, 2023)

What was measured:
14-3-3ε = biological target: T1, 14-3-3ε (Homo sapiens, UniProt P62258); assay: SPR, PEAK tandem peptides binding to immobilised 14-3-3ε; details: peptide analyte over amine-coupled 14-3-3ε (CM5); Biacore S200, HBS-TP pH 7.4, 20 °C; steady-state 1:1 fit; mean ± S.E.M.; read-out: SPR KD, 14-3-3ε (epsilon)
T1 construct: 14-3-3ε (UniProt P62258-1; residues 1–255); 8-His tag with TEV protease cleavage site (N); made in house; host or cells: E. coli C41 (DE3)
T1 sequence (P62258 1-255): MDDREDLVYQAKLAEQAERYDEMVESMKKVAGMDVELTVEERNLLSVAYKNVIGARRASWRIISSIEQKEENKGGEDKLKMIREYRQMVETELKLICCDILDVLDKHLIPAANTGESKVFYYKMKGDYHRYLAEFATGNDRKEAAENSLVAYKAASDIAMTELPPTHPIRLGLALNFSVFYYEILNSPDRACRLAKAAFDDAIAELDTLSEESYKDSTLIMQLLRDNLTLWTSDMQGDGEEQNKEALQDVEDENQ
Protocol: Purified […]3 was diluted to 5 μg ml^-1 in 10 mM sodium acetate pH 4.0 and amine coupled at 25 °C to a Series S CM5 sensor chip, in HBS-N running buffer (20 mM HEPES pH 7.4, 150 mM NaCl) to a final immobilization level of 1100-1400 response units (RU), followed by surface deactivation using 1 M ethanolamine. A blank activation/deactivation was used for the reference surface. […] PEAK PRM peptides: […] Samples were injected in a multi-cycle run (flow rate 30 μl min^-1, contact time of 60 s, dissociation 120 s) without regeneration. Sensorgrams were double referenced, and steady-state binding data fitted using a 1:1 binding model using Biacore S200 Evaluation Software (Cytiva, v. 1.1). […] Representative sensorgrams and fitted dissociation constant (KD) values, depicted as mean ± S.E.M.

14-3-3η = biological target: T2, 14-3-3η (Homo sapiens, UniProt Q04917); assay: SPR, PEAK tandem peptides binding to immobilised 14-3-3η; details: peptide analyte over amine-coupled 14-3-3η (CM5); Biacore S200, HBS-TP pH 7.4, 20 °C; steady-state 1:1 fit; mean ± S.E.M.; read-out: SPR KD, 14-3-3η (eta)
T2 construct: 14-3-3η (UniProt Q04917-1; residues 1–246); 8-His tag with TEV protease cleavage site (N); made in house; host or cells: E. coli C41 (DE3)
T2 sequence (Q04917 1-246): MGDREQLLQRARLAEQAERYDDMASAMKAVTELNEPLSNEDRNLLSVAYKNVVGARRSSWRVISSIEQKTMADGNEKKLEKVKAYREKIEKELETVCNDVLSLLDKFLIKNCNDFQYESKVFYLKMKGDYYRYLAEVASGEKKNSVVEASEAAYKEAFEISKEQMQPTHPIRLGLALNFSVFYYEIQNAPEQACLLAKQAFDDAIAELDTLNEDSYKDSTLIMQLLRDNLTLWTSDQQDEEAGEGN
Protocol: (§1) Purified […]3 was diluted to 5 μg ml^-1 in 10 mM sodium acetate pH 4.0 and amine coupled at 25 °C to a Series S CM5 sensor chip, in HBS-N running buffer (20 mM HEPES pH 7.4, 150 mM NaCl) to a final immobilization level of 1100-1400 response units (RU), followed by surface deactivation using 1 M ethanolamine. A blank activation/deactivation was used for the reference surface. […] Samples were injected in a multi-cycle run (flow rate 30 μl min^-1, contact time of 60 s, dissociation 120 s) without regeneration. Sensorgrams were double referenced, and steady-state binding data fitted using a 1:1 binding model using Biacore S200 Evaluation Software (Cytiva, v. 1.1). […] Representative sensorgrams and fitted dissociation constant (KD) values, depicted as mean ± S.E.M.

CrkII^NSH3 = biological target: T3, CrkII^NSH3 (Homo sapiens, UniProt P46108); assay: SPR, PEAK PRM and tandem peptides binding to immobilised CrkII NSH3 domain; details: peptide analyte over amine-coupled CrkII NSH3 (CM5); Biacore S200, HBS-TP pH 7.4, 20 °C; steady-state 1:1 fit; mean ± S.E.M. (N ≥ 3) or SD (N = 2); read-out: SPR KD, CrkII N-SH3
T3 construct: CrkII^NSH3; UniProt P46108-1, residues 134–191; 8-His tag with TEV protease cleavage site (N); made in house; host or cells: E. coli C41 (DE3)
T3 sequence (P46108 134-191): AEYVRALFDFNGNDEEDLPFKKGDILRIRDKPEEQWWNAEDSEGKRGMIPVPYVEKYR
Protocol: SPR binding studies of PEAK PRM peptides to CrkII^NSH3 were performed using a Biacore S200 Instrument (Cytiva). Purified CrkII^NSH3 was diluted to 5 µg ml^−1 in 10 mM sodium acetate pH 4.0 and amine coupled at 25 °C to a Series S CM5 sensor chip, in HBS-N running buffer (20 mM HEPES pH 7.4, 150 mM NaCl) to a final immobilization level of 1100–1400 response units (RU), followed by surface deactivation using 1 M ethanolamine. A blank activation/deactivation was used for the reference surface. Peptide binding studies were performed at 20 °C in HBS-TP running buffer (20 mM HEPES pH 7.4, 150 mM NaCl, 1 mM TCEP, 0.005% (v/v) Tween-P20). […] Peptide stocks were further diluted to in running buffer to 10 or 20 µM and prepared as a 11-point concentration series (2-fold serial dilution, […] for PEAK PRM peptides, or 20 µM–20 nM for PEAK tandem motif peptides). Samples were injected in a multi-cycle run (flow rate 30 µl min^−1, contact time of 60 s, dissociation 120 s) without regeneration. Sensorgrams were double referenced, and steady-state binding data fitted using a 1:1 binding model using Biacore S200 Evaluation Software (Cytiva, v. 1.1).

14-3-3γ = biological target: T4, 14-3-3γ (Homo sapiens, UniProt P61981); assay: SPR, PEAK peptides binding to immobilised 14-3-3γ; details: peptide analyte over amine-coupled 14-3-3γ (CM5), Biacore S200, HBS-TP pH 7.4, 20 °C, steady-state 1:1 fit, mean ± S.E.M.
T4 construct: 14-3-3γ (UniProt P61981-1; residues 1–247); 8-His tag with TEV protease cleavage site (N); made in house; host or cells: E. coli C41 (DE3)
T4 sequence (P61981 1-247): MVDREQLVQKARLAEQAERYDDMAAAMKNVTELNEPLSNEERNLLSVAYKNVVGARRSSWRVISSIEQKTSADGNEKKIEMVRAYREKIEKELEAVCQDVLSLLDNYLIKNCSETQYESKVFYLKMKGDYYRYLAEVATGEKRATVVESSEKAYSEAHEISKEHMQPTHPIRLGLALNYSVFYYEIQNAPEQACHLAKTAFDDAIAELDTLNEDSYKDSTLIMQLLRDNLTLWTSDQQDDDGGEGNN
Protocol: as §1

Kd (14-3-3ε): > 100 µM
Kd (14-3-3η): > 100 µM
Kd (CrkII^NSH3): 0.6 ± 0.02 µM
SPR KD, 14-3-3γ (gamma) (14-3-3γ): no appreciable binding
SPR KD, 14-3-3γ (gamma) (14-3-3γ; 54–74): No binding
Kd (14-3-3γ; read-out: SPR KD, 14-3-3γ (gamma)): > 100 µM
SMILES: CC[C@H](C)[C@H](NC(=O)[C@H](CCCCN)NC(=O)[C@H](CCCCN)NC(=O)[C@@H]1CCCN1C(=O)[C@H](CC(C)C)NC(=O)[C@@H]1CCCN1C(=O)[C@@H]1CCCN1C(=O)[C@@H]1CCCN1C(=O)[C@H](CC(C)C)NC(=O)[C@@H]1CCCN1C(C)=O)C(=O)N[C@@H](CC(C)C)C(=O)N[C@H](C(=O)N[C@@H](CCCNC(=N)N)C(=O)N[C@H](C(=O)N[C@@H](CCC(N)=O)C(=O)N[C@@H](CO)C(=O)N[C@@H](CC(C)C)C(=O)N1CCC[C@H]1C(=O)N[C@H](C(=O)N[C@@H](CCCNC(=N)N)C(=O)N[C@@H](CCCNC(=N)N)C(N)=O)[C@@H](C)O)[C@@H](C)O)[C@@H](C)O (single isomer, unassigned) [PEAK3^tandem]
